As usually defined, the IC50 is the midpoint of a concentration-inhibition curve.

This test has as its target T1, N-terminally GST-tagged human full length recombinant Mps-1 kinase (Homo sapiens, UniProt P33981).
T1 construct: N-terminally GST-tagged human full length recombinant Mps-1 kinase; purchased Invitrogen, Karslruhe, Germany PV4071
T1 sequence (P33981 1-857): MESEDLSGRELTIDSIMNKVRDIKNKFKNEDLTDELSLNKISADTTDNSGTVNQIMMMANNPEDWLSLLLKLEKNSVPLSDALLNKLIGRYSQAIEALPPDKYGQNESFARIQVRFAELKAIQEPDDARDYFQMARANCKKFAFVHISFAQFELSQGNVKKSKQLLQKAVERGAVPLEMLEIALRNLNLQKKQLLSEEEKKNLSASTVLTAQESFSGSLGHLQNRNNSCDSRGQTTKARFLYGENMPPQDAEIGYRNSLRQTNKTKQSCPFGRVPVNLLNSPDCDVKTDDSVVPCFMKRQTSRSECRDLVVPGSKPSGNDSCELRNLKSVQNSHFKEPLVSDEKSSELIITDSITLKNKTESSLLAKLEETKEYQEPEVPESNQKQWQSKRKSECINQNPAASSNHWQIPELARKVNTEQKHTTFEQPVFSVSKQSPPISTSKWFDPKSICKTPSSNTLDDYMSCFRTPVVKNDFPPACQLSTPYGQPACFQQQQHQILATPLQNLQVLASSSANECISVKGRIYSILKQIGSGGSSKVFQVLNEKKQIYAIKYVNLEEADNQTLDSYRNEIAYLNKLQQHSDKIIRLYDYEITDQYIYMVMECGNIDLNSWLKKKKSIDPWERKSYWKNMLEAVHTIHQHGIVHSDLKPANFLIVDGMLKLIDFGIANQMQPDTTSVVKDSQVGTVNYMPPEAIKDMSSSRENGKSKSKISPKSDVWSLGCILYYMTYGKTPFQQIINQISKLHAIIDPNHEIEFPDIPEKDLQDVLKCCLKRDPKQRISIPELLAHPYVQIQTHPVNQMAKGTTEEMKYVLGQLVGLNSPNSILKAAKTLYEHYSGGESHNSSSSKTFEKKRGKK
The test is described as follows: Mps-1 kinase assay (TR-FRET). Particulars: Mps1 IC50 [nM], 10 μM ATP, 1 μM peptide substrate, 60 min at 22° C. It counts as biochemical. The method in brief: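 TR-FRET signal between a Europium anti-phospho-Ser/Thr antibody and streptavidin-XLent reported phosphorylation of a biotinylated peptide by GST-tagged full-length Mps-1. Enzyme was near 1 nM final, chosen per lot for linearity.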
Take `COc1cc(C(=O)NC2CC2)ccc1-c1cnc2c(NCCC(F)(F)F)cc(-c3ccnn3C)nn12` [Example 53, N-cyclopropyl-3-methoxy-4-{6-(1-methyl-1H-pyrazol-5-yl)-8-[(3,3,3-trifluoropropyl)amino]imidazo[1,2-b]pyridazin-3-yl}benzamide]: the IC50 is 7.1 nM.
As for `COc1cc(C(=O)NC2CC2)ccc1-c1cnc2c(NCCC(F)(F)F)cc(-c3ccccc3CO)nn12` [Example 54, N-cyclopropyl-4-{6-[2-(hydroxymethyl)phenyl]-8-[(3,3,3-trifluoropropyl)amino]imidazo[1,2-b]pyridazin-3-yl}-3-methoxybenzamide], the figure is 7.6 nM; as for `COc1ccccc1Sc1cc(NCCC(F)(F)F)c2ncc(-c3ccc(C(=O)NC4CC4)c(C)c3)n2n1` [Example 55, N-cyclopropyl-4-{6-[(2-methoxyphenyl)sulfanyl]-8-[(3,3,3-trifluoropropyl)amino]imidazo[1,2-b]pyridazin-3-yl}-2-methylbenzamide], 1.2 nM.
Under `Cc1cc(-c2cnc3c(NCC(C)(C)N)cc(-c4ccc(F)cc4)nn23)ccc1C(=O)NC1CC1` [Example 57, 4-{8-[(2-Amino-2-methylpropyl)amino]-6-(4-fluorophenyl)imidazo[1,2-b]pyridazin-3-yl}-N-cyclopropyl-2-methylbenzamide] stands 4.4 nM; under `Cc1cc(-c2cnc3c(NCC(C)(C)N)cc(-c4ccnn4C)nn23)ccc1C(=O)NC1CC1` [Example 58, 4-{8-[(2-Amino-2-methylpropyl)amino]-6-(1-methyl-1H-pyrazol-5-yl)imidazo[1,2-b]pyridazin-3-yl}-N-cyclopropyl-2-methylbenzamide], 20.5 nM.
Under `Cc1cc(-c2cnc3c(NCC(C)(C)N)cc(-c4ccccc4CO)nn23)ccc1C(=O)NC1CC1` [Example 59, 4-{8-[(2-Amino-2-methylpropyl)amino]-6-[2-(hydroxymethyl)phenyl]imidazo[1,2-b]pyridazin-3-yl}-N-cyclopropyl-2-methylbenzamide] stands 32.5 nM.
Regarding `Cc1cc(-c2cnc3c(NCC(C)(C)O)cc(Sc4ccc(O)cc4)nn23)ccc1C(=O)NC1CC1` [Example 60A, N-cyclopropyl-4-{8-[(2-hydroxy-2-methylpropyl)amino]-6-[(4-hydroxyphenyl)sulfanyl]imidazo[1,2-b]pyridazin-3-yl}-2-methylbenzamide], the concentration for half-maximal inhibition (IC50) was determined as 0.2 nM.
As for `COc1ccc(Sc2cc(NCC(C)(C)O)c3ncc(-c4ccc(C(=O)NC5CC5)c(C)c4)n3n2)cc1` [Example 60B, N-cyclopropyl-4-{8-[(2-hydroxy-2-methylpropyl)amino]-6-[(4-methoxyphenyl)sulfanyl]imidazo[1,2-b]pyridazin-3-yl}-2-methylbenzamide], the figure is less than 0.1 nM.
As for `Cc1cc(-c2cnc3c(NCC(C)(C)O)cc(Sc4cccc(O)c4)nn23)ccc1C(=O)NC1CC1` [Example 61A, N-cyclopropyl-4-{8-[(2-hydroxy-2-methylpropyl)amino]-6-[(3-hydroxyphenyl)sulfanyl]imidazo[1,2-b]pyridazin-3-yl}-2-methylbenzamide], the figure is 0.2 nM; as for `COc1cccc(Sc2cc(NCC(C)(C)O)c3ncc(-c4ccc(C(=O)NC5CC5)c(C)c4)n3n2)c1` [Example 61B, N-cyclopropyl-4-{8-[(2-hydroxy-2-methylpropyl)amino]-6-[(3-methoxyphenyl)sulfanyl]imidazo[1,2-b]pyridazin-3-yl}-2-methylbenzamide], 0.3 nM.
Under `CC(C)(O)CNc1cc(Sc2cccc(F)c2)nn2c(-c3ccc(C(=O)NC4CC4)cc3O)cnc12` [Example 62A, N-cyclopropyl-4-{6-[(3-fluorophenyl)sulfanyl]-8-[(2-hydroxy-2-methylpropyl)amino]imidazo[1,2-b]pyridazin-3-yl}-3-hydroxybenzamide] stands 0.2 nM.
In the case of `COc1cc(C(=O)NC2CC2)ccc1-c1cnc2c(NCC(C)(C)O)cc(Sc3cccc(F)c3)nn12` [Example 62B, N-cyclopropyl-4-{6-[(3-fluorophenyl)sulfanyl]-8-[(2-hydroxy-2-methylpropyl)amino]imidazo[1,2-b]pyridazin-3-yl}-3-methoxybenzamide], the IC50 worked out at 11.5 nM.
Under `Cc1cc(Sc2cc(NCC(C)(C)O)c3ncc(-c4ccc(C(=O)NC5CC5)c(C)c4)n3n2)ccc1O` [Example 63, N-cyclopropyl-4-{6-[(4-hydroxy-3-methylphenyl)sulfanyl]-8-[(2-hydroxy-2-methylpropyl)amino]imidazo[1,2-b]pyridazin-3-yl}-2-methylbenzamide] stands less than 0.1 nM.
As for `Cc1ccc(F)cc1Sc1cc(NCC(C)(C)O)c2ncc(-c3ccc(C(=O)NC4CC4)c(C)c3)n2n1` [Example 64, N-cyclopropyl-4-{6-[(5-fluoro-2-methylphenyl)sulfanyl]-8-[(2-hydroxy-2-methylpropyl)amino]imidazo[1,2-b]pyridazin-3-yl}-2-methylbenzamide], the figure is 0.1 nM; as for `Cc1cc(Sc2cc(NCC(C)(C)O)c3ncc(-c4ccc(C(=O)NC5CC5)c(C)c4)n3n2)ccc1F` [Example 65, N-cyclopropyl-4-{6-[(4-fluoro-3-methylphenyl)sulfanyl]-8-[(2-hydroxy-2-methylpropyl)amino]imidazo[1,2-b]pyridazin-3-yl}-2-methylbenzamide], 0.7 nM; as for `Cc1ccc(Sc2cc(NCC(C)(C)O)c3ncc(-c4ccc(C(=O)NC5CC5)c(C)c4)n3n2)cc1F` [Example 66, N-cyclopropyl-4-{6-[(3-fluoro-4-methylphenyl)sulfanyl]-8-[(2-hydroxy-2-methylpropyl)amino]imidazo[1,2-b]pyridazin-3-yl}-2-methylbenzamide], 0.2 nM.
As for `Cc1cc(F)cc(Sc2cc(NCC(C)(C)O)c3ncc(-c4ccc(C(=O)NC5CC5)c(C)c4)n3n2)c1` [Example 67, N-cyclopropyl-4-{6-[(3-fluoro-5-methylphenyl)sulfanyl]-8-[(2-hydroxy-2-methylpropyl)amino]imidazo[1,2-b]pyridazin-3-yl}-2-methylbenzamide], the figure is 0.1 nM; as for `Cc1cc(-c2cnc3c(NCC(C)(C)O)cc(Sc4cc(F)cc(F)c4)nn23)ccc1C(=O)NC1CC1` [Example 68, N-cyclopropyl-4-{6-[(3,5-difluorophenyl)sulfanyl]-8-[(2-hydroxy-2-methylpropyl)amino]imidazo[1,2-b]pyridazin-3-yl}-2-methylbenzamide], less than 0.1 nM.
With `Cc1cc(F)ccc1Sc1cc(NCC(C)(C)O)c2ncc(-c3ccc(C(=O)NC4CC4)c(C)c3)n2n1` [Example 69, N-cyclopropyl-4-{6-[(4-fluoro-2-methylphenyl)sulfanyl]-8-[(2-hydroxy-2-methylpropyl)amino]imidazo[1,2-b]pyridazin-3-yl}-2-methylbenzamide], the IC50 stood at 1 nM.
As to `Cc1cc(-c2cnc3c(NCC(C)(C)O)cc(Sc4ccccc4F)nn23)ccc1C(=O)NC1CC1` [Example 70, N-cyclopropyl-4-{6-[(2-fluorophenyl)sulfanyl]-8-[(2-hydroxy-2-methylpropyl)amino]imidazo[1,2-b]pyridazin-3-yl}-2-methylbenzamide], the half-maximal inhibitory concentration (IC50) was 0.3 nM.
Under `Cc1cc(-c2cnc3c(NCC(C)(C)O)cc(Sc4ccc(F)cc4)nn23)ccc1C(=O)NC1CC1` [Example 71, N-cyclopropyl-4-{6-[(4-fluorophenyl)sulfanyl]-8-[(2-hydroxy-2-methylpropyl)amino]imidazo[1,2-b]pyridazin-3-yl}-2-methylbenzamide] stands 0.8 nM; under `C/C=C(\C)c1cc(NCC(C)(C)O)c2ncc(-c3ccc(C(=O)NC4CC4)cc3OC)n2n1` [Example 72, 4-{6-[(2E)-But-2-en-2-yl]-8-[(2-hydroxy-2-methylpropyl)amino]imidazo[1,2-b]pyridazin-3-yl}-N-cyclopropyl-3-methoxybenzamide], 44.4 nM.
For the molecule `Cc1cc(-c2cnc3c(NCC(C)(C)O)cc(Sc4ccccc4O)nn23)ccc1C(=O)NC1CC1` [Example 73A, N-cyclopropyl-4-{8-[(2-hydroxy-2-methylpropyl)amino]-6-[(2-hydroxyphenyl)sulfanyl]imidazo[1,2-b]pyridazin-3-yl}-2-methylbenzamide], the IC50 is less than 0.7 nM.
As for `COc1ccccc1Sc1cc(NCC(C)(C)O)c2ncc(-c3ccc(C(=O)NC4CC4)c(C)c3)n2n1` [Example 73B, N-cyclopropyl-4-{8-[(2-hydroxy-2-methylpropyl)amino]-6-[(2-methoxyphenyl)sulfanyl]imidazo[1,2-b]pyridazin-3-yl}-2-methylbenzamide], the figure is 3.8 nM.
